Reference: PMC3265250 (Chemotherapy Research and Practice, 2011)
Values after ≈ are worked out from the molar mass of the structure shown. Read-outs that look alike come from different tables or passages of the source. No end group written: not given here.

How the values were obtained:
[1] = test system: S. aureus ATCC 9144; experiment: MIC, microbroth dilution, referential strain ATCC 9144; assay type: cell-based, Staphylococcus aureus
[2] = test system: Superantigen negative S. aureus (10); experiment: microbe, parasite or virus in culture; conditions: Staphylococcus aureus; for MIC50 / MIC90 / MIC: 18 h; for MIC: read-out: MIC Range
[3] = test system: Superantigen positive S. aureus (14); experiment: microbe, parasite or virus in culture; conditions: Staphylococcus aureus; for MIC50 / MIC90 / MIC: 18 h; for MIC: read-out: MIC Range
[4] = test system: S. aureus ATCC 25923; experiment: MIC, microbroth dilution, referential strain ATCC 25923; assay type: cell-based, Staphylococcus aureus
Experimental: (§1) A total number of 24 SA strains were obtained from patients with erythrodermia and 3 reference SA ones from the American Type Culture Collection: 6538P ATCC, 9144 ATCC, and 25923 ATCC (Institute of Experimental Therapy, Wroclaw, Poland). […] Polypropylene 96-well plates (Sigma-Aldrich) were incubated for 18 h at 37°C. MIC was taken as the lowest drug concentration at which a noticeable growth was inhibited. […] The experiments were performed in triplicate.

[5] = test system: Superantigen negative S. aureus (10); conditions: for MIC 50% / MIC 90% / MIC Range: microbroth dilution, MHB II, 5 × 10^5 CFU/mL, 18 h at 37°C
[6] = test system: Superantigen positive S. aureus (14); conditions: for MIC 50% / MIC 90% / MIC Range: microbroth dilution, MHB II, 5 × 10^5 CFU/mL, 18 h at 37°C
[7] = test system: S. aureus ATCC 6538P; experiment: MIC, microbroth dilution, referential strain ATCC 6538P; assay type: cell-based, Staphylococcus aureus
Experimental: as §1

[8] = Staphylococcus aureus, ATCC9144, ATCC 9144, microbroth dilution, MHB II, 5 × 10^5 CFU/mL, 18 h at 37°C, triplicate, read-out: MIC
[9] = Staphylococcus aureus, ATCC25923, ATCC 25923, microbroth dilution, MHB II, 5 × 10^5 CFU/mL, 18 h at 37°C, triplicate, read-out: MIC
[10] = superantigen negative clinical isolates (10), more than 99.9% reduction of the initial inoculums, triplicate
[11] = superantigen positive clinical isolates (14), more than 99.9% reduction of the initial inoculums, triplicate
[12] = Staphylococcus aureus, ATCC6538P, ATCC 6538P, microbroth dilution, MHB II, 5 × 10^5 CFU/mL, 18 h at 37°C, triplicate, read-out: MIC
[13] = ATCC 9144, microbroth dilution, MHB II, 5 × 10^5 CFU/mL, 18 h at 37°C, triplicate
[14] = ATCC 25923, microbroth dilution, MHB II, 5 × 10^5 CFU/mL, 18 h at 37°C, triplicate
[15] = superantigen negative clinical isolates (10), triplicate
[16] = superantigen positive clinical isolates (14), triplicate
[17] = ATCC 6538P, microbroth dilution, MHB II, 5 × 10^5 CFU/mL, 18 h at 37°C, triplicate

| Molecule | MIC [1, 8] | MIC50 [2] | MIC90 [2] | MIC [2] | MIC90 ([2]; read-out: MICs 90%) | MBC ([2]; read-out: MBC 50%) | MBC ([2]; read-out: MBC 90%) | MIC50 [3] | MIC90 [3] | MIC [3] | MIC90 ([3]; read-out: MICs 90%) | MBC ([3]; read-out: MBC 50%) | MBC ([3]; read-out: MBC 90%) | MIC [4, 9] | MBC Range [5, 10] | MBC Range [6, 11] | MIC [7, 12] | MBC 50% [5] | MBC 90% [5] | MBC 50% [6] | other results |
| --- | --- | --- | --- | --- | --- | --- | --- | --- | --- | --- | --- | --- | --- | --- | --- | --- | --- | --- | --- | --- | --- |
| CN(C)c1cc(NC(=O)CNC(C)(C)C)c(O)c2c1C[C@H]1C[C@H]3[C@H](N(C)C)C(O)=C(C(N)=O)C(=O)[C@@]3(O)C(O)=C1C2=O [Tigecycline, tigecycline] | 0.25 µg/mL (≈ 0.427 µM) | 0.5 µg/mL (≈ 0.854 µM) | 0.5 µg/mL (≈ 0.854 µM) | 0.5 to 1 µg/mL (≈ 0.854 to 1.71 µM) | 0.5 µg/mL (≈ 0.854 µM) | 1 µg/mL (≈ 1.71 µM) | 1 µg/mL (≈ 1.71 µM) | 0.5 µg/mL (≈ 0.854 µM) | 0.5 µg/mL (≈ 0.854 µM) | 0.5 to 1 µg/mL (≈ 0.854 to 1.71 µM) | 0.5 µg/mL (≈ 0.854 µM) | 1 µg/mL (≈ 1.71 µM) | 1 µg/mL (≈ 1.71 µM) | 0.25 µg/mL (≈ 0.427 µM) | 1 to 2 mg/L | 1 to 2 mg/L | 0.25 µg/mL (≈ 0.427 µM) |  |  |  |  |
| CCC[C@@H]1C[C@@H](C(=O)N[C@@H]([C@H]2O[C@H](SC)[C@H](O)[C@@H](O)[C@H]2O)[C@H](C)Cl)N(C)C1 [Clindamycin, clindamycin] | 2 µg/mL (≈ 4.71 µM) | 32 µg/mL (≈ 75.3 µM) | 32 µg/mL (≈ 75.3 µM) | 16 to 64 µg/mL (≈ 37.6 to 151 µM) | 32 µg/mL (≈ 75.3 µM) | 32 µg/mL (≈ 75.3 µM) | 64 µg/mL (≈ 151 µM) | 64 µg/mL (≈ 151 µM) | 512 µg/mL (≈ 1200 µM) | 8 to 512 µg/mL (≈ 18.8 to 1200 µM) | 512 µg/mL (≈ 1200 µM) | 64 µg/mL (≈ 151 µM) | 128 µg/mL (≈ 301 µM) | 2 µg/mL (≈ 4.71 µM) | 64 to 128 mg/L | 16 to 512 mg/L | 4 µg/mL (≈ 9.41 µM) |  |  |  |  |
| GLFDVIKKVASVIGGL-NH2 (C-terminus assumed) [Citropin 1.1, citropin 1.1] |  |  |  |  |  |  |  |  |  |  |  |  |  |  | 16 to 64 mg/L | 16 to 64 mg/L |  | 16 mg/L | 64 mg/L | 16 mg/L | MIC [1, 13]: 32 µg/mL; MIC [4, 14]: 32 µg/mL; MIC 50% [5, 15]: 16 mg/L; MIC 90% [5, 15]: 32 mg/L; MIC Range [5, 15]: 8 to 32 mg/L; MBC 90% [6]: 64 mg/L; MIC 50% [6, 16]: 16 mg/L; MIC 90% [6, 16]: 32 mg/L; MIC Range [6, 16]: 8 to 32 mg/L; MIC [7, 17]: 8 µg/mL |
| GLFDIIKKIAESF-NH2 (C-terminus assumed) [Aurein 1.2, aurein 1.2] |  |  |  |  |  |  |  |  |  |  |  |  |  |  | 64 to 128 mg/L | 64 to 128 mg/L |  | 64 mg/L | 128 mg/L | 64 mg/L | MIC [1, 13]: 64 µg/mL; MIC [4, 14]: 64 µg/mL; MIC 50% [5, 15]: 64 mg/L; MIC 90% [5, 15]: 128 mg/L; MIC Range [5, 15]: 32 to 128 mg/L; MBC 90% [6]: 128 mg/L; MIC 50% [6, 16]: 64 mg/L; MIC 90% [6, 16]: 128 mg/L; MIC Range [6, 16]: 32 to 128 mg/L; MIC [7, 17]: 64 µg/mL |
| O=C(N[C@H](CO)[C@H](O)c1ccc([N+](=O)[O-])cc1)C(Cl)Cl [Chloramphenicol, chloramphenicol] | 4 µg/mL (≈ 12.4 µM) | 4 µg/mL (≈ 12.4 µM) | 32 µg/mL (≈ 99 µM) | 2 to 32 µg/mL (≈ 6.19 to 99 µM) | 32 µg/mL (≈ 99 µM) | 8 µg/mL (≈ 24.8 µM) | 32 µg/mL (≈ 99 µM) | 8 µg/mL (≈ 24.8 µM) | 64 µg/mL (≈ 198 µM) | 4 to 128 µg/mL (≈ 12.4 to 396 µM) | 64 µg/mL (≈ 198 µM) | 16 µg/mL (≈ 49.5 µM) | 128 µg/mL (≈ 396 µM) | 4 µg/mL (≈ 12.4 µM) | 8 to 32 mg/L | 8 to 128 mg/L | 4 µg/mL (≈ 12.4 µM) |  |  |  |  |
| CN[C@H](CC(C)C)C(=O)N[C@H]1C(=O)N[C@@H](CC(N)=O)C(=O)N[C@H]2C(=O)N[C@H]3C(=O)N[C@H](C(=O)N[C@H](C(=O)O)c4cc(O)cc(O)c4-c4cc3ccc4O)[C@H](O)c3ccc(c(Cl)c3)Oc3cc2cc(c3O[C@@H]2O[C@H](CO)[C@@H](O)[C@H](O)[C@H]2O[C@H]2C[C@](C)(N)[C@H](O)[C@H](C)O2)Oc2ccc(cc2Cl)[C@H]1O [Vancomycin, vancomycin] |  | 1 µg/mL (≈ 0.69 µM) | 1 µg/mL (≈ 0.69 µM) | 0.5 to 1 µg/mL (≈ 0.345 to 0.69 µM) | 1 µg/mL (≈ 0.69 µM) | 1 µg/mL (≈ 0.69 µM) | 2 µg/mL (≈ 1.38 µM) | 1 µg/mL (≈ 0.69 µM) | 2 µg/mL (≈ 1.38 µM) | 0.5 to 2 µg/mL (≈ 0.345 to 1.38 µM) | 2 µg/mL (≈ 1.38 µM) | 2 µg/mL (≈ 1.38 µM) | 4 µg/mL (≈ 2.76 µM) |  |  |  |  |  |  |  | MIC ([1]; Staphylococcus aureus, ATCC9144, 18 h): 2 µg/mL (≈ 1.38 µM); MIC ([4]; Staphylococcus aureus, ATCC25923, 18 h): 1 µg/mL (≈ 0.69 µM); MBC Range [5]: 1 to 4 mg/L; MBC Range [6]: 1 to 4 mg/L; MIC ([7]; Staphylococcus aureus, ATCC6538P, 18 h): 1 µg/mL (≈ 0.69 µM) |
| CC[C@H]1OC(=O)[C@H](C)[C@@H](O[C@H]2C[C@@](C)(OC)[C@@H](O)[C@H](C)O2)[C@H](C)[C@@H](O[C@@H]2O[C@H](C)C[C@H](N(C)C)[C@H]2O)[C@](C)(O)C[C@@H](C)C(=O)[C@H](C)[C@@H](O)[C@]1(C)O [Erythromycin, erythromycin] | 1 µg/mL (≈ 1.36 µM) | 0.5 µg/mL (≈ 0.681 µM) | 0.5 µg/mL (≈ 0.681 µM) | 0.25 to 64 µg/mL (≈ 0.341 to 87.2 µM) | 0.5 µg/mL (≈ 0.681 µM) | 1 µg/mL (≈ 1.36 µM) | 2 µg/mL (≈ 2.73 µM) | 1 µg/mL (≈ 1.36 µM) | 256 µg/mL (≈ 349 µM) |  | 256 µg/mL (≈ 349 µM) | 8 µg/mL (≈ 10.9 µM) | 128 µg/mL (≈ 174 µM) | 1 µg/mL (≈ 1.36 µM) |  | 4 to 512 mg/L | 1 µg/mL (≈ 1.36 µM) |  |  |  | MIC Range [6, 16]: 0.25 to 512 mg/L |
| GVIDAAKKVVNVLKNLF-NH2 (C-terminus assumed) [Uperin 3.6, uperin 3.6] |  |  |  |  |  |  |  |  |  |  |  |  |  |  |  |  |  | 128 mg/L | 128 mg/L | 128 mg/L | MBC 90% [6]: 128 mg/L |
| FLPLIGRVLSGIL-NH2 (C-terminus assumed) [Temporin A, temporin A] |  |  |  |  |  |  |  |  |  |  |  |  |  |  | 16 to 64 mg/L | 16 to 64 mg/L |  | 16 mg/L | 32 mg/L | 32 mg/L | MIC [1, 13]: 16 µg/mL; MIC [4, 14]: 16 µg/mL; MIC 50% [5, 15]: 8 mg/L; MIC 90% [5, 15]: 16 mg/L; MIC Range [5, 15]: 8 to 32 mg/L; MBC 90% [6]: 64 mg/L; MIC 50% [6, 16]: 8 mg/L; MIC 90% [6, 16]: 16 mg/L; MIC Range [6, 16]: 8 to 32 mg/L; MIC [7, 17]: 8 µg/mL |
| CC(=O)NC[C@H]1CN(c2ccc(N3CCOCC3)c(F)c2)C(=O)O1 [Linezolid, linezolid] | 1 µg/mL (≈ 2.96 µM) | 1 µg/mL (≈ 2.96 µM) | 1 µg/mL (≈ 2.96 µM) | 0.5 to 2 µg/mL (≈ 1.48 to 5.93 µM) | 1 µg/mL (≈ 2.96 µM) |  |  | 1 µg/mL (≈ 2.96 µM) | 2 µg/mL (≈ 5.93 µM) | 0.5 to 2 µg/mL (≈ 1.48 to 5.93 µM) | 2 µg/mL (≈ 5.93 µM) |  |  | 0.5 µg/mL (≈ 1.48 µM) |  |  | 0.5 µg/mL (≈ 1.48 µM) |  |  |  |  |
| O=C(O)c1cn(C2CC2)c2cc(N3CCNCC3)c(F)cc2c1=O [Ciprofloxacin, ciprofloxacin] |  |  |  |  |  |  |  |  |  |  |  |  |  | 1 µg/mL (≈ 3.02 µM) |  |  | 1 µg/mL (≈ 3.02 µM) |  |  |  |  |
